Test results reported in PubChem BioAssay AID248 (DTP/NCI, 2004).
Values joined by “and” are separate entries in the source; they are usually repeats but may differ in a detail not shown here. Identical values can stand only once. Inconclusive results and toxic doses are left out. Rule as the data show it: active = T/C of 150% or more; inactive = T/C below 125%.

Tested on: L1210 leukemia ip in BDF1 mice, survival T/C
Test: NCI In Vivo Anticancer Drug Screen. Data for tumor model L1210 Leukemia (intraperitoneal) in B6D2F1 (BDF1) mice
Conditions: endpoint: mean survival time, higher = longer survival
Summary of the method: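 Value reflects the ratio of survival in compound-treated mice to survival in vehicle-treated controls, with both groups carrying the same transplanted tumor.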

[1] = dose: 100.0 mg/kg/injection, schedule: Q01DX001 (ip), vehicle: saline
[2] = dose: 200.0 mg/kg/injection, schedule: Q01DX001 (ip), vehicle: saline
[3] = dose: 400.0 mg/kg/injection, schedule: Q01DX001 (ip), vehicle: saline
[4] = dose: 100.0 mg/kg/injection, schedule: Q04DX003 (ip), vehicle: Klucel (hydroxypropylcellulose) (HPC)
[5] = dose: 12.5 mg/kg/injection, schedule: Q01DX009 (ip), vehicle: saline with Tween-80
[6] = dose: 25.0 mg/kg/injection, schedule: Q01DX009 (ip), vehicle: saline with Tween-80
[7] = dose: 100.0 mg/kg/injection, schedule: Q04DX002 (ip), vehicle: Klucel (hydroxypropylcellulose) (HPC)
[8] = dose: 400.0 mg/kg/injection, schedule: Q04DX002 (ip), vehicle: Klucel (hydroxypropylcellulose) (HPC)

Measured: T/C

CSc1nc(N)cc(Nc2ccc(Cl)[nH]c2=S)n1
inactive: dose: 75.0 mg/kg/injection, schedule: Q01DX001 (ip), vehicle: Klucel (hydroxypropylcellulose) (HPC) 92 % of control | dose: 150.0 mg/kg/injection, schedule: Q01DX001 (ip), vehicle: Klucel (hydroxypropylcellulose) (HPC) 95 % of control | dose: 300.0 mg/kg/injection, schedule: Q01DX001 (ip), vehicle: Klucel (hydroxypropylcellulose) (HPC) 93 % of control

CCCCCC[P+](=O)CCCCCC
inactive: dose: 100.0 mg/kg/injection, schedule: Q04DX002 (ip), vehicle: gum acacia 97 % of control | dose: 200.0 mg/kg/injection, schedule: Q04DX002 (ip), vehicle: gum acacia 103 % of control

Nc1[nH]c(=S)ncc1-c1cccc(Cl)c1
inactive: dose: 50.0 mg/kg/injection, schedule: Q01DX001 (ip), vehicle: Klucel (hydroxypropylcellulose) (HPC) 110 % of control | dose: 100.0 mg/kg/injection, schedule: Q01DX001 (ip), vehicle: Klucel (hydroxypropylcellulose) (HPC) 117 % of control | dose: 200.0 mg/kg/injection, schedule: Q01DX001 (ip), vehicle: Klucel (hydroxypropylcellulose) (HPC) 114 % of control

O=C1NC(=O)C(c2ccc(C(=O)O)cc2)N1 (stereo not drawn)
inactive: dose: 50.0 mg/kg/injection, schedule: Q01DX001 (ip), vehicle: saline 107 % of control | [1] 105 % of control | [2] 100 % of control | [3] 96 % of control

O=C(Sc1ccccc1-n1cccc1)c1ccccc1
inactive: dose: 100.0 mg/kg/injection, schedule: Q01DX009 (ip), vehicle: saline with Tween-80 109 % of control | dose: 200.0 mg/kg/injection, schedule: Q01DX009 (ip), vehicle: saline with Tween-80 100 % of control | dose: 400.0 mg/kg/injection, schedule: Q01DX009 (ip), vehicle: saline with Tween-80 102 % of control

CSc1ccc(/C=N/NC(N)=S)cc1
inactive: dose: 100.0 mg/kg/injection, schedule: Q01DX009 (ip), vehicle: Klucel (hydroxypropylcellulose) (HPC) 103 % of control | [4] 106 % of control | dose: 200.0 mg/kg/injection, schedule: Q01DX009 (ip), vehicle: Klucel (hydroxypropylcellulose) (HPC) 92 % of control | dose: 200.0 mg/kg/injection, schedule: Q04DX003 (ip), vehicle: Klucel (hydroxypropylcellulose) (HPC) 106 % of control | dose: 400.0 mg/kg/injection, schedule: Q04DX003 (ip), vehicle: Klucel (hydroxypropylcellulose) (HPC) 108 % of control

Cc1cc(C)c(S(=O)(=O)c2c(C)cc(C)cc2C)c(C)c1
inactive: dose: 25.0 mg/kg/injection, schedule: Q04DX003 (ip), vehicle: Klucel (hydroxypropylcellulose) (HPC) 100 % of control | dose: 50.0 mg/kg/injection, schedule: Q04DX003 (ip), vehicle: Klucel (hydroxypropylcellulose) (HPC) 93 % of control | [4] 88 % of control

COC(=O)c1n[nH]c(C2OCC3OC(C)(C)OC32)c1I (stereo not drawn)
inactive: dose: 100.0 mg/kg/injection, schedule: Q01DX005 (ip), vehicle: saline 98 % of control | dose: 200.0 mg/kg/injection, schedule: Q01DX005 (ip), vehicle: saline 98 % of control

Cc1cccc2sc(=S)[nH]c12
inactive: dose: 37.5 mg/kg/injection, schedule: Q04DX003 (ip), vehicle: Klucel (hydroxypropylcellulose) (HPC) 107 % of control | dose: 75.0 mg/kg/injection, schedule: Q01DX009 (ip), vehicle: Klucel (hydroxypropylcellulose) (HPC) 92 % of control | dose: 75.0 mg/kg/injection, schedule: Q04DX003 (ip), vehicle: Klucel (hydroxypropylcellulose) (HPC) 101 % of control | dose: 150.0 mg/kg/injection, schedule: Q01DX009 (ip), vehicle: Klucel (hydroxypropylcellulose) (HPC) 92 % of control | dose: 150.0 mg/kg/injection, schedule: Q04DX003 (ip), vehicle: Klucel (hydroxypropylcellulose) (HPC) 93 % of control | dose: 300.0 mg/kg/injection, schedule: Q01DX009 (ip), vehicle: Klucel (hydroxypropylcellulose) (HPC) 93 % of control | dose: 300.0 mg/kg/injection, schedule: Q04DX003 (ip), vehicle: Klucel (hydroxypropylcellulose) (HPC) 95 % of control

CN(C)S(=O)(=O)c1ccc(NC(=O)CI)cc1
inactive: dose: 12.0 mg/kg/injection, schedule: Q01DX001 (ip), vehicle: other 95 % of control | [5] 95 % of control | dose: 12.5 mg/kg/injection, schedule: Q04DX003 (ip), vehicle: other 95 % of control | dose: 25.0 mg/kg/injection, schedule: Q01DX001 (ip), vehicle: other 105 % of control | [6] 106 % of control | dose: 25.0 mg/kg/injection, schedule: Q04DX003 (ip), vehicle: other 101 % of control | dose: 50.0 mg/kg/injection, schedule: Q01DX001 (ip), vehicle: other 100 % of control | dose: 50.0 mg/kg/injection, schedule: Q04DX003 (ip), vehicle: other 96 % of control

CC(O)C(NCNC(=O)C1=C(O)C2(O)C(=O)C3=C(O)c4c(O)cccc4C(C)(O)C3CC2C(N(C)C)C1=O)C(=O)O (stereo not drawn)
inactive: dose: 1.0 mg/kg/injection, schedule: Q01DX Z (ip), vehicle: saline 110 % of control | dose: 4.0 mg/kg/injection, schedule: Q01DX Z (ip), vehicle: saline 100 % of control | dose: 14.0 mg/kg/injection, schedule: Q01DX Z (ip), vehicle: saline 91 % of control | dose: 15.0 mg/kg/injection, schedule: Q01DX Z (ip), vehicle: saline 96 % of control | dose: 28.0 mg/kg/injection, schedule: Q01DX Z (ip), vehicle: saline 102 % of control | dose: 56.0 mg/kg/injection, schedule: Q01DX Z (ip), vehicle: saline 91 % of control | dose: 60.0 mg/kg/injection, schedule: Q01DX Z (ip), vehicle: saline 98 % of control | dose: 100.0 mg/kg/injection, schedule: Q04DX003 (ip), vehicle: saline 98 % of control | dose: 120.0 mg/kg/injection, schedule: Q01DX Z (ip), vehicle: saline 93 % of control | dose: 200.0 mg/kg/injection, schedule: Q04DX003 (ip), vehicle: saline 100 % of control | dose: 224.0 mg/kg/injection, schedule: Q01DX Z (ip), vehicle: saline 91 % of control | dose: 240.0 mg/kg/injection, schedule: Q01DX Z (ip), vehicle: saline 95 % of control and 98 % of control | dose: 400.0 mg/kg/injection, schedule: Q04DX003 (ip), vehicle: saline 109 % of control | dose: 448.0 mg/kg/injection, schedule: Q01DX Z (ip), vehicle: saline 93 % of control | dose: 480.0 mg/kg/injection, schedule: Q01DX Z (ip), vehicle: saline 107 % of control

CC(N)C(=O)NC1C(CO)OC(n2cnc3c(N)ncnc32)C1O (stereo not drawn)
inactive: [1] 105 % of control | [2] 101 % of control | [3] 101 % of control

CCCCCS(=O)(=O)N1CCCC1
inactive: [7] 107 % of control | dose: 200.0 mg/kg/injection, schedule: Q04DX002 (ip), vehicle: Klucel (hydroxypropylcellulose) (HPC) 103 % of control | [8] 111 % of control

C/C(=N\N)c1ccc(Cl)cc1
inactive: dose: 6.25 mg/kg/injection, schedule: Q01DX009 (ip), vehicle: saline with Tween-80 93 % of control | [5] 101 % of control | [6] 96 % of control

NCCc1ccc(NC(=O)c2ccc(C(=O)Nc3ccc(CCN)cc3)c([N+](=O)[O-])c2)cc1
inactive: dose: 1.56 mg/kg/injection, schedule: Q01DX015 (ip), vehicle: methylcellulose (MC) 94 % of control | dose: 3.12 mg/kg/injection, schedule: Q01DX015 (ip), vehicle: methylcellulose (MC) 94 % of control | dose: 6.25 mg/kg/injection, schedule: Q01DX015 (ip), vehicle: methylcellulose (MC) 94 % of control | dose: 12.5 mg/kg/injection, schedule: Q01DX015 (ip), vehicle: methylcellulose (MC) 98 % of control and 92 % of control | dose: 25.0 mg/kg/injection, schedule: Q01DX015 (ip), vehicle: methylcellulose (MC) 104 % of control

Oc1cc(Br)c(O)c(Br)c1
inactive: dose: 25.0 mg/kg/injection, schedule: Q04DX002 (ip), vehicle: Klucel (hydroxypropylcellulose) (HPC) 109 % of control | dose: 50.0 mg/kg/injection, schedule: Q04DX002 (ip), vehicle: Klucel (hydroxypropylcellulose) (HPC) 102 % of control | [7] 97 % of control | [8] 90 % of control
